Experimental data reported in patent US4132778A, “Antibiotic A-32887” (Eli Lilly and Company, priority 1977, dated 1979).

How the values were obtained:
E. tenella AND E. maxima = test: Anticoccidial feeding test in chicks, E. tenella and E. maxima (Table XI); assay type: in vivo; parameters: Average Lesion Score, Total Intestinal / Average Lesion Score, Cecal: scale not given here; Mortality: unit not given here; conditions: for Mortality: due to coccidiosis
Description: ^1 70,000 oocysts/bird of each of E. tenella and E. maxima
^2 Infected 48 hours postmedication; terminated seven days
^3 Four replicates; five birds/replicate

[1] = system: ruminal propionate concentration; test: Ruminal VFA in fistulated feed-lot cattle (Table XV); assay type: in vivo; conditions: 30 g/ton, 24 days
Excerpt: The procedure used in testing cattle in this manner is also described in Raun's U.S. Pat. No. 3,839,557 (see Example 9). Table XV summarizes the results of such a test with A-32887 (Na-K salt) wherein five feed-lot cattle weighing approximately 425 kg. were in each group and the mean percent increases in ruminal propionate concentration were averaged over four analyses in a 24-day treatment period.

[2] = system: Staphylococcus aureus 3074 (Penicillin G-resistant); test: Conventional disc-diffusion method, Table VII; assay type: cell-based
Excerpt: (§1) The activity of A-32887 (Na-K salt) against illustrative bacteria, as measured by the conventional disc-diffusion method, is summarized in Table VI.
*Penicillin G-resistant

Eubacterium aerofaciens = test: Standard agar-dilution assay, anaerobic bacteria, Table IX; assay type: cell-based; conditions: 24-hour incubation
[3] = system: Peptococcus asaccharolyticus; test: as above; assay type: cell-based; conditions: 24-hour incubation
Peptococcus prevoti = test: as above; assay type: cell-based; conditions: 24-hour incubation
[4] = system: Peptostreptococcus anaerobius; test: as above; assay type: cell-based; conditions: 24-hour incubation
Clostridium perfringens = assay type: cell-based; conditions: 24-hour incubation
[5] = system: E. tenella AND E. acervulina; test: Anticoccidial feeding test in chicks, E. tenella and E. acervulina (Table XII); assay type: in vivo; parameters: Average Lesion Score, Intestinal / Average Lesion Score, Cecal: scale not given here; conditions: for Percent Mortality: due to coccidiosis; for Percent Weight Gain: normal controls = 100%
Description: ^1 6 replicates; 5 birds each
^2 Infection inoculum 48 hours post-medication onset

[6] = system: E. tenella, E. maxima and E. acervulina; test: Anticoccidial feeding test in chicks, E. tenella, E. maxima and E. acervulina (Table XIII); conditions: for Percent Mortality: due to coccidiosis; for Percent Weight Gain: per survivor
rumen flora = test: Rumen volatile-fatty-acid (VFA) production test in flasks (Table XIV); conditions: 1 mcg/ml
Fusobacterium symbiosum = test: Standard agar-dilution assay, anaerobic bacteria, Table IX; assay type: cell-based; conditions: 24-hour incubation
[7] = system: Bacteriodes melaninogenicus 1856/28; test: as above; assay type: cell-based; conditions: 24-hour incubation
Description: Table IX summarizes the MIC's at which A-32887 (Na-K salt) inhibits various anaerobic bacteria, as determined by standard agar-dilution assay. End points were read after 24-hour incubation.

coccidia = test: Feeding experiments in chicks challenged with coccidia; assay type: in vivo, Eimeria species; chicks; conditions: levels as low as 40 ppm in feed of young chickens
acute swine dysentery = test: Swine dysentery test in infected pigs (Table XVII); assay type: in vivo; conditions: 100 g/ton in feed
Description: In another aspect the A-32887 compounds are useful in the prevention and control of swine dysentery. A preferred method of administration to swine is by incorporation of an appropriate amount of an A-32887 compound into the feed ration. […] In this test, groups of four pigs were challenged orally with 5.0 ml of a colon-content/tissue suspension prepared from pigs suffering from acute swine dysentery. Treated pigs were challenged 24 hours after initiating feed treatment. The test was carried out over a period of 26 days, observing pigs daily, and weighing them weekly and on day 26.
*Fecal material for each group was rated daily with 0= normal, 1= slight
blood or mucus, 2= moderate blood or mucus, 3= marked blood or mucus.
Index is the total score per treatment for 25 days.

Southern armyworm = test: Insecticidal activity; assay type: in vivo; conditions: 1000 ppm
Excerpt: (§2) In another aspect, the A-32887 compounds are useful as insecticides. For example, A-32887 (Na-K salt) is active against insects such as Mexican bean beetle, Southern armyworm and housefly when applied at a rate of 1000 ppm.

Mexican bean beetle = test: Insecticidal activity; assay type: in vivo; conditions: 1000 ppm
Excerpt: as §2

housefly = test: Insecticidal activity; assay type: in vivo; conditions: 1000 ppm
Excerpt: as §2

[8] = system: powdery mildew disease in bean plants; test: Plant disease test, spray; assay type: in vivo; conditions: 400 ppm as a spray
Excerpt: The A-32887 compounds are also useful in the treatment of certain plant diseases.

[9] = system: Staphylococcus aureus 3130 (Methicillin-resistant); test: Conventional disc-diffusion method, Table VII; assay type: cell-based
Excerpt: as §1
**Methicillin-resistant

[10] = system: Fusobacterium necrophorum; test: Standard agar-dilution assay, anaerobic bacteria, Table IX; assay type: cell-based; conditions: 24-hour incubation
Propionibacterium acnes = test: as above; assay type: cell-based; conditions: 24-hour incubation
Bacteriodes corrodens = test: as above; assay type: cell-based; conditions: 24-hour incubation

For `CO[C@H]1CC[C@H](OC2[C@@H](C)[C@@](C)(O)O[C@H]([C@H]3CC[C@H]([C@@H]4CC[C@H]([C@@]5(C)O[C@]6(O[C@H](C[C@@H]7O[C@](O)([C@@H](O)C(=O)O)[C@@H](C)[C@H](OC)[C@@]7(C)OC)C[C@@H](OC)[C@H]6C)[C@H](C)[C@H]5OC)O4)O3)[C@H]2C)O[C@@H]1C.[K+].[Na+]` (stereo partly shown) [A-32887 (Na-K salt)], the “Average Lesion Score, Cecal” value (E. tenella AND E. maxima; 40 ppm in feed) was 1.6, the “Average Lesion Score, Total Intestinal” value (E. tenella AND E. maxima; 40 ppm in feed) was 4.9 and the Mortality (E. tenella AND E. maxima; 40 ppm in feed) was 0. For the same compound, the “Average Lesion Score, Cecal” value (E. tenella AND E. maxima; 60 ppm in feed) was 0.6, the “Average Lesion Score, Total Intestinal” value (E. tenella AND E. maxima; 60 ppm in feed) was 5.9 and the Mortality (E. tenella AND E. maxima; 60 ppm in feed) was 0. The “Average Lesion Score, Cecal” value (E. tenella AND E. maxima; 80 ppm in feed) was 0.3, the “Average Lesion Score, Total Intestinal” value (E. tenella AND E. maxima; 80 ppm in feed) was 3.0 and the Mortality (E. tenella AND E. maxima; 80 ppm in feed) was 0. The “Average Lesion Score, Cecal” value (E. tenella AND E. maxima; 100 ppm in feed) was 0, the “Average Lesion Score, Total Intestinal” value (E. tenella AND E. maxima; 100 ppm in feed) was 1.6 and the Mortality (E. tenella AND E. maxima; 100 ppm in feed) was 0. For the same compound, the “Molar % Butyrate” value [1] was 9.6 Molar %, the “Total VFA” value [1] was 79.6 mM/l and the “Zone of Inhibition” value ([2]; 30 mcg/disc) was 12.7 mm. The “Zone of Inhibition” value ([2]; 300 mcg/disc) was 16.0 mm, the MIC (Eubacterium aerofaciens) was at most 0.5 µg/mL and the MIC [3] was at most 0.5 µg/mL. It also gave an MIC (Peptococcus prevoti) of at most 0.5 µg/mL, an MIC [4] of at most 0.5 µg/mL and an MIC (Clostridium perfringens) of at most 0.5 µg/mL. For the same compound, the “Average Lesion Score, Cecal” value ([5]; 62 ppm) was 0.1, the “Average Lesion Score, Intestinal” value ([5]; 62 ppm) was 0.9 and the “Percent Mortality” value ([5]; 62 ppm) was 0%. The “Percent Weight Gain” value ([5]; 62 ppm) was 97%, the “Average Lesion Score, Cecal” value ([5]; 77 ppm) was 0 and the “Average Lesion Score, Intestinal” value ([5]; 77 ppm) was 0.7. The “Percent Mortality” value ([5]; 77 ppm) was 0%, the “Percent Weight Gain” value ([5]; 77 ppm) was 90% and the “Average Lesion Score, Cecal” value ([5]; 100 ppm) was 0.1. For the same compound, the “Average Lesion Score, Intestinal” value ([5]; 100 ppm) was 0.6, the “Percent Mortality” value ([5]; 100 ppm) was 0% and the “Percent Weight Gain” value ([5]; 100 ppm) was 85%. The “Average Lesion Score, Cecal” value ([5]; 121 ppm) was 0, the “Average Lesion Score, Intestinal” value ([5]; 121 ppm) was 0.3 and the “Percent Mortality” value ([5]; 121 ppm) was 0%. For the same compound, the “Percent Weight Gain” value ([5]; 121 ppm) was 73%, the “Average Lesion Score, Cecal” value ([6]; 25 ppm) was 3.9 and the “Average Lesion Score, Intestinal” value ([6]; 25 ppm) was 1.1. The “Percent Mortality” value ([6]; 25 ppm) was 35%, the “Percent Weight Gain” value ([6]; 25 ppm) was 57% and the “Average Lesion Score, Cecal” value ([6]; 50 ppm) was 3.8. For the same compound, the “Average Lesion Score, Intestinal” value ([6]; 50 ppm) was 1.8, the “Percent Mortality” value ([6]; 50 ppm) was 0% and the “Percent Weight Gain” value ([6]; 50 ppm) was 79%. For the same compound, the “Average Lesion Score, Cecal” value ([6]; 75 ppm) was 2.0, the “Average Lesion Score, Intestinal” value ([6]; 75 ppm) was 0.9 and the “Percent Mortality” value ([6]; 75 ppm) was 0%. For the same compound, the “Percent Weight Gain” value ([6]; 75 ppm) was 90%, the “Average Lesion Score, Cecal” value ([6]; 100 ppm) was 0.1 and the “Average Lesion Score, Intestinal” value ([6]; 100 ppm) was 0. The “Percent Mortality” value ([6]; 100 ppm) was 0%, the Feed/Gain ([6]; 100 ppm, pens without deaths only) was 1.50 and the “Percent Weight Gain” value ([6]; 100 ppm) was 93%. For the same compound, the “Ratio of Treated to Control, Molar % Acetate” value (rumen flora) was 0.5744, the “Ratio of Treated to Control, Molar % Butyrate” value (rumen flora) was 1.1116 and the “Ratio of Treated to Control, Total VFA mM/l.” value (rumen flora) was 0.7498. The “Ratio of Treated to Control, Molar % Propionate” value (rumen flora; *P<0.01) was 1.4191, the MIC (Fusobacterium symbiosum) was 32 µg/mL and the MIC [7] was 32 µg/mL. For the same compound, the “mortality and number of lesions in challenged chicks” value (coccidia) was “decreases mortality and the number of lesions”, the “No. Died per No. in Group” value (acute swine dysentery) was 0/4 and the “No. with Colon Lesions/No. in Group” value (acute swine dysentery) was 2/4. The “Diarrhea Index” value (acute swine dysentery; total score per treatment for 25 days) was 22, the insecticidal activity (Southern armyworm) was “active” and the insecticidal activity (Mexican bean beetle) was “active”. For the same compound, the insecticidal activity (housefly) was “active”, the “inhibition of powdery mildew disease” value [8] was “inhibits powdery mildew disease” and the “Zone of Inhibition” value ([9]; 30 mcg/disc) was 15.0 mm. The “Zone of Inhibition” value ([9]; 300 mcg/disc) was 15.2 mm, the MIC [10] was 32 µg/mL and the MIC (Propionibacterium acnes) was at most 0.5 µg/mL. For the same compound, the MIC (Bacteriodes corrodens) was 2 µg/mL.
